Data reported in PubChem BioAssay AID1963449 (Molecular Pharmacology Branch, DTP, NCI, 2024).

System: 596521-263-R-J1-PDC complex spheroid growth
Test: Anticancer human tumor 596521-263-R-J1-PDC patient-derived soft tissue sarcoma cell line growth inhibition [Asc]
Details: for IC50: curve of first compound; for viability, T/C: stronger effect = lower value
Outline: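 Tumor cells were grown as multicellular spheroids with stromal HUVEC and mesenchymal stem cells and treated singly or in combination. Concentrations fell in half-log steps from the clinical Cmax, or from 10 microM where none was known.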

[1] = second compound 0.0316 µM, first compound 0.00949 µM
[2] = second compound 0.0316 µM, first compound 0.03 µM
[3] = second compound 0.0316 µM, first compound 0.0949 µM
[4] = second compound 0.0316 µM, first compound 0.3 µM
[5] = second compound 0.0316 µM, first compound 0.949 µM
[6] = second compound 0.0316 µM, first compound 3 µM
[7] = second compound 0.1 µM, first compound 0.00949 µM
[8] = second compound 0.1 µM, first compound 0.03 µM
[9] = second compound 0.1 µM, first compound 0.0949 µM
[10] = second compound 0.1 µM, first compound 0.3 µM
[11] = second compound 0.1 µM, first compound 0.949 µM
[12] = second compound 0.1 µM, first compound 3 µM
[13] = second compound 0.316 µM, first compound 0.00949 µM
[14] = second compound 0.316 µM, first compound 0.03 µM
[15] = second compound 0.316 µM, first compound 0.0949 µM
[16] = second compound 0.316 µM, first compound 0.3 µM
[17] = second compound 0.316 µM, first compound 0.949 µM
[18] = second compound 0.316 µM, first compound 3 µM
[19] = second compound 1 µM, first compound 0.00949 µM
[20] = second compound 1 µM, first compound 0.03 µM
[21] = second compound 1 µM, first compound 0.0949 µM
[22] = second compound 1 µM, first compound 0.3 µM
[23] = second compound 1 µM, first compound 0.949 µM
[24] = second compound 1 µM, first compound 3 µM
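Also: spheroids exposed to compounds for 7 days.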

Cc1nc(N2CCC3(CC2)COC(C)C3N)c(CO)nc1Sc1ccnc(N)c1Cl (centres undefined) + CNC(C)C(=O)NC1CN(S(=O)(=O)c2cccc(S(=O)(=O)N3CCC4CCC(C(=O)NC(c5ccccc5)c5ccccc5)N4C(=O)C(NC(=O)C(C)NC)C3)c2)CCC2CCC(C(=O)NC(c3ccccc3)c3ccccc3)N2C1=O
IC50 (second compound 0.00316 µM): > 3000 nM
IC50 (second compound 0.01 µM): > 3000 nM
IC50 (second compound 0.0316 µM): > 3000 nM
IC50 (second compound 0.1 µM): 2250 nM
IC50 (second compound 0.316 µM): > 3000 nM
IC50 (second compound 1 µM): 1620 nM
viability, T/C (second compound 0.00316 µM, first compound 0.00949 µM): 101%
viability, T/C (second compound 0.00316 µM, first compound 0.03 µM): 93.3%
viability, T/C (second compound 0.00316 µM, first compound 0.0949 µM): 98.7%
viability, T/C (second compound 0.00316 µM, first compound 0.3 µM): 97.3%
viability, T/C (second compound 0.00316 µM, first compound 0.949 µM): 75.8%
viability, T/C (second compound 0.00316 µM, first compound 3 µM): 57.6%
viability, T/C (second compound 0.01 µM, first compound 0.00949 µM): 96.9%
viability, T/C (second compound 0.01 µM, first compound 0.03 µM): 87.4%
viability, T/C (second compound 0.01 µM, first compound 0.0949 µM): 89.8%
viability, T/C (second compound 0.01 µM, first compound 0.3 µM): 80.6%
viability, T/C (second compound 0.01 µM, first compound 0.949 µM): 73.1%
viability, T/C (second compound 0.01 µM, first compound 3 µM): 61%
viability, T/C [1]: 102%
viability, T/C [2]: 82.2%
viability, T/C [3]: 94.2%
viability, T/C [4]: 77%
viability, T/C [5]: 71.5%
viability, T/C [6]: 50.7%
viability, T/C [7]: 90.5%
viability, T/C [8]: 82.2%
viability, T/C [9]: 77.1%
viability, T/C [10]: 75.5%
viability, T/C [11]: 63.1%
viability, T/C [12]: 45.3%
viability, T/C [13]: 79.2%
viability, T/C [14]: 81.5%
viability, T/C [15]: 78.9%
viability, T/C [16]: 69.8%
viability, T/C [17]: 67.7%
viability, T/C [18]: 49.8%
viability, T/C [19]: 80.3%
viability, T/C [20]: 71.2%
viability, T/C [21]: 72.4%
viability, T/C [22]: 65.7%
viability, T/C [23]: 58.5%
viability, T/C [24]: 41.4%

CCN1C(C(=O)NC23CCC(C(=O)O)(CC2)CC3)C(c2cccc(Cl)c2F)C2(C(=O)Nc3cc(Cl)ccc32)C12CCCCC2 (centres undefined) + Cc1c(S(C)(=O)=O)c(-c2cc(F)cc(N3CCN(c4ccc(NS(=O)(=O)c5ccc(NC(CCN6CCC(C(=O)OCCCP(=O)(O)O)CC6)CSc6ccccc6)c(S(=O)(=O)C(F)(F)F)c5)cc4)CC3)c2)c(-c2ccc(Cl)cc2)n1C(C)C
IC50 (second compound 0.0316 µM): > 3000 nM
IC50 (second compound 0.1 µM): > 3000 nM
IC50 (second compound 0.316 µM): > 3000 nM
IC50 (second compound 1 µM): 2380 nM
IC50 (second compound 3.16 µM): 459 nM
IC50 (second compound 10 µM): 133 nM
viability, T/C [1]: 94.6%
viability, T/C [2]: 97.5%
viability, T/C [3]: 94.3%
viability, T/C [4]: 90.8%
viability, T/C [5]: 87.5%
viability, T/C [6]: 80.7%
viability, T/C [7]: 89.5%
viability, T/C [8]: 94.8%
viability, T/C [9]: 95.9%
viability, T/C [10]: 112%
viability, T/C [11]: 87.7%
viability, T/C [12]: 73.4%
viability, T/C [13]: 98.7%
viability, T/C [14]: 92.4%
viability, T/C [15]: 84.7%
viability, T/C [16]: 97.1%
viability, T/C [17]: 83%
viability, T/C [18]: 54.1%
viability, T/C [19]: 88.6%
viability, T/C [20]: 76%
viability, T/C [21]: 67.2%
viability, T/C [22]: 83.1%
viability, T/C [23]: 62.7%
viability, T/C [24]: 46.1%
viability, T/C (second compound 3.16 µM, first compound 0.00949 µM): 64.5%
viability, T/C (second compound 3.16 µM, first compound 0.03 µM): 71%
viability, T/C (second compound 3.16 µM, first compound 0.0949 µM): 54.8%
viability, T/C (second compound 3.16 µM, first compound 0.3 µM): 57.1%
viability, T/C (second compound 3.16 µM, first compound 0.949 µM): 42.2%
viability, T/C (second compound 3.16 µM, first compound 3 µM): 24.2%
viability, T/C (second compound 10 µM, first compound 0.00949 µM): 50.8%
viability, T/C (second compound 10 µM, first compound 0.03 µM): 53%
viability, T/C (second compound 10 µM, first compound 0.0949 µM): 51.7%
viability, T/C (second compound 10 µM, first compound 0.3 µM): 46.8%
viability, T/C (second compound 10 µM, first compound 0.949 µM): 33.8%
viability, T/C (second compound 10 µM, first compound 3 µM): 18.8%
